Source: US20060063755A1, “Loxapine analogs and methods of use thereof” (priority 2004, published 2006)

Experiments:
[1] = target: hERG channel (Homo sapiens, UniProt Q12809); assay: hERG channel current block, whole cell recording in HEK293 cells; type: cell-based; details: HEK293 cells expressing hERG
Description: Other in vitro selection criteria for loxapine analogs of the invention includes hERG binding.
(Brown and Rampe (2000)).
In one embodiment of the HERG assay, the positive control (i.e., reference compound) is terfenadine (Sigma, St. Louis Mo.), which has been shown, at a concentration of 60 nM, to block HERG current by approximately 75%. Test compounds are delivered in HEPES-buffered physiological saline (HB-PS)+0.1% dimethyl sulfoxide (DMSO).
Clin. Exp. Allergy 29 Suppl 3, 174-181.
If the final DMSO concentration must be greater than 0.3%, to reach a specified test article concentration, a separate vehicle control test with an n>2 was performed at the highest final DMSO concentration.
Each cell acted as its own control. […] One concentration of the positive control article (60 nM terfenadine) was applied to two cells (n≧2).

[2] = target: T1, M2 muscarinic receptor (Homo sapiens, UniProt P08172); assay: M2 binding assay, [3H]-scopolamine N-methyl chloride, CHO cells; details: human recombinant
T1 construct: purchased PerkinElmer, Inc., Wellesley, Mass; host or cells: CHO cells
T1 sequence (P08172 1-466): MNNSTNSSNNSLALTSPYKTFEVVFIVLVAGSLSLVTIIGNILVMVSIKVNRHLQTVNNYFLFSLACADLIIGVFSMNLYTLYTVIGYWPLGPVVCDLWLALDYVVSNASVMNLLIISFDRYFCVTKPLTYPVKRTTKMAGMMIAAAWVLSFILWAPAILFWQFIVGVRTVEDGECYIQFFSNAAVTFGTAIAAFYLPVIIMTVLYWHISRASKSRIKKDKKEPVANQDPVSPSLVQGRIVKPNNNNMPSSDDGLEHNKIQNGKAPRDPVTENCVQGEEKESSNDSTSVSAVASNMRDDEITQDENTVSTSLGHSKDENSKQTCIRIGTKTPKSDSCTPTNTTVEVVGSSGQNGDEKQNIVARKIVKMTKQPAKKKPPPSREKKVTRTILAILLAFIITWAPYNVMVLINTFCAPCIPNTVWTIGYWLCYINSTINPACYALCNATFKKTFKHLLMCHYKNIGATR

[3] = target: alpha 1 receptors; assay: Alpha 1 receptor binding assay; details: read-out: Ki Alpha1
Description: (§1) Binding assays were performed using the disclosed sleep-inducing agents and derivatives selected from those listed in Table 1 in competitive binding assays with known standards for the H1 histamine receptor, and the M1, M2, and M3 muscarinic receptors, alpha 1 and alpha 2 receptors, and D1 and D2 receptors.

[4] = target: T2, M3 muscarinic receptor (Homo sapiens, UniProt P20309); assay: M3 binding assay, [3H]-scopolamine N-methyl chloride, CHO cells; details: human recombinant
T2 construct: purchased PerkinElmer, Inc., Wellesley, Mass; host or cells: CHO cells

[5] = target: Dopamine, D1 (Homo sapiens, UniProt P21728); assay: Dopamine D1 (human recombinant) binding assay
Description: as §1
Dopamine, D1 (human recombinant) binding assay was performed according to published procedures. See, e.g., Jarvie, et al. J. Recept Res., 13(1-4): 573-90 (1993); and Billard, et al. Life Sciences, 35(18): 1885-93 (1984), with modifications

[6] = target: alpha 2 receptors; assay: Alpha 2 receptor binding assay; details: read-out: Ki Alpha2
Description: as §1

[7] = target: T3, H1 histamine receptor (Bos taurus, UniProt P30546); assay: H1 competitive binding assay, [3H]pyrilamine, bovine cerebellar membranes; details: bovine cerebellar membrane
T3 construct: the receptors were obtained from bovine cerebellar membrane tissue; from tissue; host or cells: bovine cerebellar membranes

[8] = target: D2 receptors (Homo sapiens, UniProt P14416); assay: Dopamine D2 binding assay (human)
Description: Binding assays were performed using the disclosed sleep-inducing agents and derivatives selected from those listed in Table 1 in competitive binding assays with known standards for the H1 histamine receptor, and the M1, M2, and M3 muscarinic receptors, alpha 1 and alpha 2 receptors, and D1 and D2 receptors. […]

[9] = target: T4, M1 muscarinic receptor (Homo sapiens, UniProt P11229); assay: M1 binding assay, [3H]-scopolamine N-methyl chloride, CHO cells; details: human recombinant
T4 construct: purchased PerkinElmer, Inc., Wellesley, Mass; host or cells: CHO cells
T4 sequence (P11229 1-460): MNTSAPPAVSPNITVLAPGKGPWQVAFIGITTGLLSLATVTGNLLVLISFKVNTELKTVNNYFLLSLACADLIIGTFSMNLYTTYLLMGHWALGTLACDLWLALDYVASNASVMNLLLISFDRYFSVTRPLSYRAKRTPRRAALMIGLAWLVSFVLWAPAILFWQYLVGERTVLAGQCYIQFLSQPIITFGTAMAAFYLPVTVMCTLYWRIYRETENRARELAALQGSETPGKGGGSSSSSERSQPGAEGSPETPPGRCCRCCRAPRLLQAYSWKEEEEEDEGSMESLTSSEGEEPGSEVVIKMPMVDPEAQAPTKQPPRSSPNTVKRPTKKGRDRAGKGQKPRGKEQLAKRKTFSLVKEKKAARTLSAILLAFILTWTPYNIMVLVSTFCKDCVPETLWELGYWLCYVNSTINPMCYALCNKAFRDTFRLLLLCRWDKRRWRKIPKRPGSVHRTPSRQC

T3 sequence (P30546 whole entry): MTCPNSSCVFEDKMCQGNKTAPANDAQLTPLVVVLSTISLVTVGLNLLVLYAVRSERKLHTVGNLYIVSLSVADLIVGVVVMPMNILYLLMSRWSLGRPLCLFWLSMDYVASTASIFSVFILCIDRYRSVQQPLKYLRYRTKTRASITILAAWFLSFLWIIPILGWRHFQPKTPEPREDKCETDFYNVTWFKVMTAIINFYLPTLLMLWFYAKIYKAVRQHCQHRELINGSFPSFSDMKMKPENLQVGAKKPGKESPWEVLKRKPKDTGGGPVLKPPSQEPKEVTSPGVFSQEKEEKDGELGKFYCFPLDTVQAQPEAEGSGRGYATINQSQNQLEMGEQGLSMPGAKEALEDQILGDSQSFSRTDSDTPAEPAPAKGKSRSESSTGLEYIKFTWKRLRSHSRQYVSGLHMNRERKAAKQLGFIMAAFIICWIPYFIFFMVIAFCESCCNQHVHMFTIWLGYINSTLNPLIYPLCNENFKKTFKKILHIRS
T2 sequence (P20309 whole entry): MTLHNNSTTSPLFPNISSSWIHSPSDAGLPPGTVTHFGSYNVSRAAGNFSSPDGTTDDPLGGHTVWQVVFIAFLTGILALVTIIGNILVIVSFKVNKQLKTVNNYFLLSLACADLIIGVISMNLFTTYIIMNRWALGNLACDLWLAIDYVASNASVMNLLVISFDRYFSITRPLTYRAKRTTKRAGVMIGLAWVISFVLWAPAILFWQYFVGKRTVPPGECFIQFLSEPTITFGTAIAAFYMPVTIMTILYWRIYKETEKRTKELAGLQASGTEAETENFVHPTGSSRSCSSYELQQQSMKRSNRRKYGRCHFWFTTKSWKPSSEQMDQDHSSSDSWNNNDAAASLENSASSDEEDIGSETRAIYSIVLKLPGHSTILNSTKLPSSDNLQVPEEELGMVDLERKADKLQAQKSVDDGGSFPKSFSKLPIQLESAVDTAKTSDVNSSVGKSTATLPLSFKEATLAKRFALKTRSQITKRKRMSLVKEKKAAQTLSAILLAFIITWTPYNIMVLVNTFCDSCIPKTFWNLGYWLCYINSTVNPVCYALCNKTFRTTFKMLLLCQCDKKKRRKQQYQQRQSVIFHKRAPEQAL
Chain of hERG channel (Q12809 whole entry): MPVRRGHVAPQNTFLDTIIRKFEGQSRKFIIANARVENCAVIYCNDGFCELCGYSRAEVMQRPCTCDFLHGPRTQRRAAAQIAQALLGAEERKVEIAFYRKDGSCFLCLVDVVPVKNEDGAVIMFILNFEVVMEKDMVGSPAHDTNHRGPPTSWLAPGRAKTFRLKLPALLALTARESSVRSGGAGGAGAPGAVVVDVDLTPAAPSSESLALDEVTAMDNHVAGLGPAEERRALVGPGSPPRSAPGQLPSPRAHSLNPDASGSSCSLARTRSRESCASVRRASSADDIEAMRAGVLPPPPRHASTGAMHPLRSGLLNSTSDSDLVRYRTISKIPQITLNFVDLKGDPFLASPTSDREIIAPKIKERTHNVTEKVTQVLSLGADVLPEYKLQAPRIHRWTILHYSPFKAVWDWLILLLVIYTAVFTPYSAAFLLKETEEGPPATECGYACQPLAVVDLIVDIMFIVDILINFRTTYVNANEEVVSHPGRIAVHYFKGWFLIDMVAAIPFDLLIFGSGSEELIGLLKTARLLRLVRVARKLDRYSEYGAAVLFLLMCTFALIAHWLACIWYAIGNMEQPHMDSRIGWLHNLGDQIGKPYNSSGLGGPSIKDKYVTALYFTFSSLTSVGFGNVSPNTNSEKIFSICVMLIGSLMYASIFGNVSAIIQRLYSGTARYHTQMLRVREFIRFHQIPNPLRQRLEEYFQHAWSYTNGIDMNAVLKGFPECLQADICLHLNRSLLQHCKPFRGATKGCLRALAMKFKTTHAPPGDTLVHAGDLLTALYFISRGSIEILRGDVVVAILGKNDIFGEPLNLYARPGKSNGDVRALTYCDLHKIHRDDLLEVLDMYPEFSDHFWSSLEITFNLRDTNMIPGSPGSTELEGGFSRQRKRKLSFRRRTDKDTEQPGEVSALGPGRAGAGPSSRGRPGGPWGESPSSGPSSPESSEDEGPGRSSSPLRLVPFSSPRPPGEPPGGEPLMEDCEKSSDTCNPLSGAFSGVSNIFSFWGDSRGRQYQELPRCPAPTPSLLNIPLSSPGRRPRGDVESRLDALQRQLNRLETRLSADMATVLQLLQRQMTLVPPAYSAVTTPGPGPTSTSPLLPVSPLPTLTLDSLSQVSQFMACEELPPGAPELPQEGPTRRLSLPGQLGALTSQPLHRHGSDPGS
Chain of D2 receptors (P14416 whole entry): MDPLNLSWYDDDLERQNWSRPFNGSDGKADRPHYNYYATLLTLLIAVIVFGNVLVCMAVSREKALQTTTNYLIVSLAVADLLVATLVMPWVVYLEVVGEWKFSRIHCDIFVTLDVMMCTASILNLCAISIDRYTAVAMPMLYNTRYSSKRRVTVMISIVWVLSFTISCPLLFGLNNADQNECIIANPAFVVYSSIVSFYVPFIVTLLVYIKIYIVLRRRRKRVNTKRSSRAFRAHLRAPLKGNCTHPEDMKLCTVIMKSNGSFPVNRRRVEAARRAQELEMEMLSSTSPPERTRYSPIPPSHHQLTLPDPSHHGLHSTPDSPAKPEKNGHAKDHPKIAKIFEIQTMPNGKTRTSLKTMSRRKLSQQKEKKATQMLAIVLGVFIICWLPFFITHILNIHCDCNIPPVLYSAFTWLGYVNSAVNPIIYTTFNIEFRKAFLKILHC
Chain of Dopamine, D1 (P21728 whole entry): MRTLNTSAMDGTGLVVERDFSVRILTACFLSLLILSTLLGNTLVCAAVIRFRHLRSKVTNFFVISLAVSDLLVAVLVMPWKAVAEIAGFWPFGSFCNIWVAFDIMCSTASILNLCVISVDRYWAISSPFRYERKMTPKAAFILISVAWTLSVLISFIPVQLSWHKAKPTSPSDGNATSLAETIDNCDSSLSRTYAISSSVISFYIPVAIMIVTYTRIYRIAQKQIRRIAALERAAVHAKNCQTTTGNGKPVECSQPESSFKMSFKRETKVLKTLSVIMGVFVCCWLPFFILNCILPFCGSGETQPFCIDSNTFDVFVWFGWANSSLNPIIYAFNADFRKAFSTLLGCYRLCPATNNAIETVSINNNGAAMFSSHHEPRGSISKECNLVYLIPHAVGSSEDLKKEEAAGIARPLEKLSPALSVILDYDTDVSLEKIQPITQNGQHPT

| Structure (SMILES) | hERG at 10 micromolar (% blocking of the hERG channel) [1] [%] | Ki [2] [µM] | Ki [3] [µM] | Ki [4] [µM] | Ki [5] [µM] | Ki [6] [µM] | Ki [7] [µM] | Ki [8] [µM] | Ki [9] [µM] |
| --- | --- | --- | --- | --- | --- | --- | --- | --- | --- |
| COc1ccc2c(c1)Oc1ccccc1C(N1CCN(CC(C)(C)C(=O)O)CC1)=N2 [Compound 32] | 1.60 | > 10 | > 10 | > 10 | > 10 | > 10 | 3.77 | > 10 | > 10 |
| O=C(O)C1(CN2CCN(C3=Nc4ccccc4Oc4ccc(Cl)cc43)CC2)CC1 [Compound 7] | 42.8 | > 10 | > 10 | > 10 | 1.73 | > 10 | 0.217 | 0.222 | > 10 |
| COc1ccc2c(c1)C(N1CCN(CC(C)(C)C(=O)O)CC1)=Nc1cc(Br)ccc1O2 [Compound 51] | 32 | > 10 | 0.148 | > 10 | 1.04 | 0.966 | 0.0278 | 0.17 | > 10 |
| O=C(O)C1(CN2CCN(C3=Nc4ccccc4Oc4ccc(Br)cc43)CC2)CC1 [Compound 9] | 59 | > 10 | > 10 | > 10 | 1.12 | > 10 | 0.036 | 0.0533 | > 10 |
| Cc1ccc2c(c1)C(N1CCN(CC(C)(C)C(=O)O)CC1)=Nc1cc(Br)ccc1O2 [Compound 50] | 45.00 | > 10 | 0.595 | > 10 | 1.14 | 1.95 | 0.0318 | 0.36 | > 10 |
| COc1ccc2c(c1)Oc1ccccc1N=C2N1CCN(CC(C)(C)C(=O)O)CC1 [Compound 39] | 61.40 | > 10 | > 10 | > 10 | > 10 | > 10 | 0.0987 | > 10 | > 10 |
| COc1ccc2c(c1)N=C(N1CCN(CC(C)(C)C(=O)O)CC1)c1ccccc1O2 [Compound 21] | 0 | > 10 | > 10 | > 10 | > 10 | > 10 | 0.0572 | > 10 | > 10 |
| Cc1ccc2c(c1)N=C(N1CCN(CC(C)(C)C(=O)O)CC1)c1ccccc1O2 [Compound 19] | 9.90 | > 10 | > 10 | > 10 | 6.8 | > 10 | 0.0395 | 3.16 | > 10 |
| Cc1ccc2c(c1)Oc1ccccc1C(N1CCN(CC(C)(C)C(=O)O)CC1)=N2 [Compound 30] | 4.50 | > 10 | > 10 | > 10 | 5.06 | > 10 | 0.0906 | > 10 | > 10 |
| Cc1ccc2c(c1)N=C(N1CCN(CC(C)(C)C(=O)O)CC1)c1cc(C)ccc1O2 [Compound 20] | 5.30 | > 10 | 1.96 | > 10 | 1.93 | > 10 | 0.0768 | 1.59 | > 10 |
| Cc1ccc2c(c1)C(N1CCN(CC(C)(C)C(=O)O)CC1)=Nc1ccccc1O2 [Compound 10] | 14 | > 10 | > 10 | > 10 | 3.16 | > 10 | 0.0396 | 1.67 | > 10 |
| COc1ccc2c(c1)N=C(N1CCN(CC(C)(C)C(=O)O)CC1)c1cc(OC)ccc1O2 [Compound 23] | 8.90 | > 10 | > 10 | > 10 | > 10 | > 10 | 0.135 | > 10 | > 10 |
| O=C(O)C1(CN2CCN(C3=Nc4ccccc4Oc4ccccc43)CC2)CC1 [Compound 2] | 19 | > 10 | > 10 | > 10 | > 10 | > 10 | 0.0514 | > 10 | > 10 |
| CC(C)(CN1CCN(C2=Nc3ccccc3Oc3ccc(O)cc32)CC1)C(=O)O [Compound 14] | 0.30 | > 10 | > 10 | > 10 | 0.942 | > 10 | 0.283 | > 10 | > 10 |
| CC(C)(CN1CCN(C2=Nc3ccccc3Oc3ccc(Br)cc32)CC1)C(=O)O [Compound 8] | 49 | > 10 | > 10 | > 10 | 3.35 | > 10 | 0.0117 | 0.434 | > 10 |
